Measured values: patent US20260035364A1, “BICYCLIC TETRAHYDROTHIAZEPINE DERIVATIVES” (Hoffmann-La Roche Inc., priority 2022, published 2026)

Legend:
primary human T-cells = experiment: T-cell proliferation assay (CellTiter-Glo); type: cell-based; settings: Homo sapiens, T-cell, 120 h, CD3 condition; for Emax: 5 days, 20 μM reference compound A1 = 100%, read-out: Emax proliferation (% activation); for EC50: proliferation after 5 days, CellTiter-Glo, read-out: Tcell Proliferation CD3 EC50
Procedure, shortened: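 Expanded primary human T-cells (100k/well) on plates coated with CD3 antibody or PBS only, given a 5- or 6-point dose response (top 20 or 10 μM final, 3.333-fold steps, 0.2% DMSO). ATP measured by CellTiter-Glo 2.0 luminescence after 5 days. Normalized to DMSO and 20 μM reference A1 (100%); EC50 and Emax reported for CD3 conditions.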

DGKzeta = DGKzeta (Homo sapiens, UniProt Q13574); experiment: In vitro DGK inhibition assay (ADP-Glo, liposomes), DGKzeta; type: biochemical; parameters: hDGKzeta(1-928)-N-His; His (N); made in house; host or cells: Sf21 insect cells (baculovirus); settings: 2 nM DGK ζ, 50 μM ATP, 125 uM DLG in liposomes, 1 hour reaction
Chain of DGKzeta (Q13574 whole entry): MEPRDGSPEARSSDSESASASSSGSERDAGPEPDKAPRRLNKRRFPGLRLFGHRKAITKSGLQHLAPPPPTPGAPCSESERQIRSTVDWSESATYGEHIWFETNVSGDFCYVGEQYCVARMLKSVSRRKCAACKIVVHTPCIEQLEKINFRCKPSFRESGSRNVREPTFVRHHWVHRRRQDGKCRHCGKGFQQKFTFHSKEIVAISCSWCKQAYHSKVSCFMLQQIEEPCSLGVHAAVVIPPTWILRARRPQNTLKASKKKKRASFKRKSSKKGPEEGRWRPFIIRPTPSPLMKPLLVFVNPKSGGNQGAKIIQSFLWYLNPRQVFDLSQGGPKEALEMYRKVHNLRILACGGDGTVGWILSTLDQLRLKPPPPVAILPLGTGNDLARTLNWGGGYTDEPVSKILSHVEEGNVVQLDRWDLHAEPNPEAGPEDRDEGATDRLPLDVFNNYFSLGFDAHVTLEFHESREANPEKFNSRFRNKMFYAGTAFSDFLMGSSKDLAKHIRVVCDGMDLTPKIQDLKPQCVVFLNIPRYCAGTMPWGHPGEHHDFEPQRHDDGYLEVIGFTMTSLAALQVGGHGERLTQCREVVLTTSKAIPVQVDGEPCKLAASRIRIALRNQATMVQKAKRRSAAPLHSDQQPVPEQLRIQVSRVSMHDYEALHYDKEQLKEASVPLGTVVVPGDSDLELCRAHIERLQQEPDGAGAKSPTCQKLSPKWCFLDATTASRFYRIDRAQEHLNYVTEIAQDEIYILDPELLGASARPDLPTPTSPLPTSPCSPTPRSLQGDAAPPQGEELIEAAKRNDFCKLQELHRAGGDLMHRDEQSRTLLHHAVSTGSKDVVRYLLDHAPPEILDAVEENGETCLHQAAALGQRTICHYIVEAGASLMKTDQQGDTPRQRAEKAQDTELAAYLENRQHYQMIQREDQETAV
Procedure, shortened: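 DGKζ (2 nM) phosphorylated DLG presented in DLG/PS/PC liposomes (final DLG 125 μM) with 50 μM ATP for 1 hour. ADP formed was read by ADP-Glo luminescence. Compounds were tested as 11-point 1:3 dose responses in 2% final DMSO.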

DGKalpha = DGKalpha (Homo sapiens, UniProt P23743); experiment: In vitro DGK inhibition assay (ADP-Glo, liposomes), DGKalpha; type: biochemical; parameters: hDGKalpha(1-735)-N-His; His (N); made in house; host or cells: Sf21 insect cells (baculovirus); settings: 4 nM DGK α, 25 μM ATP, 125 uM DLG in liposomes, 1 hour reaction
Chain of DGKalpha (P23743 whole entry): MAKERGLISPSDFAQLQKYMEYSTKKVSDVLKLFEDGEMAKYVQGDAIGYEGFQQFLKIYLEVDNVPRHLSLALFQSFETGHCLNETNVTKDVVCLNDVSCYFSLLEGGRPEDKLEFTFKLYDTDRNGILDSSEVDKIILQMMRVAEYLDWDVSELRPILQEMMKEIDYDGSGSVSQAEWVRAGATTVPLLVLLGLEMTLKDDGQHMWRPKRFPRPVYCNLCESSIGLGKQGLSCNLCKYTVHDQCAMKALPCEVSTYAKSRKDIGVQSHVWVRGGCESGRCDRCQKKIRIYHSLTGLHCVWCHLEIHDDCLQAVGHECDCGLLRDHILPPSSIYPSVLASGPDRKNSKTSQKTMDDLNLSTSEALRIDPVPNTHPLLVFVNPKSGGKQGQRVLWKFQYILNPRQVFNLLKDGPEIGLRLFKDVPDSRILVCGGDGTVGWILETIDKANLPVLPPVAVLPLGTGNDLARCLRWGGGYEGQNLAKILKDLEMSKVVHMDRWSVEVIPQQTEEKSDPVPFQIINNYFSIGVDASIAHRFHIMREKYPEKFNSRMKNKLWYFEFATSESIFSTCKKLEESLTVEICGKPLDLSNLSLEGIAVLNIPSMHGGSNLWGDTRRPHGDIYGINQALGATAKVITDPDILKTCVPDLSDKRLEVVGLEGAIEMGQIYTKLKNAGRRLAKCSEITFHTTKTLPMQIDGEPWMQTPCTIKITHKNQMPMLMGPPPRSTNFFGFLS
Procedure, shortened: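 Full-length human DGKα (4 nM) or DGKζ (2 nM) from Sf21 cells, with DLG substrate at 125 uM in PS/PC liposomes and ATP at 25 μM (α) or 50 μM (ζ); 1 h reaction. ADP formed read by ADP-Glo luminescence; compounds 11-point, 1:3 dilutions from 10 mM, 2% DMSO final.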

Row | Structure (SMILES) | Emax (primary human T-cells) [%] | EC50 (primary human T-cells) [µM] | IC50 (DGKzeta) [µM] | IC50 (DGKalpha) [µM]
1 | CC(C)(c1nnc(-c2ccc3c(c2)N(Cc2ccc(Oc4cccc(F)c4)cc2)C(=O)[C@@H](N)CS3(=O)=O)o1)S(C)(=O)=O [Example 33, (3R)-3-amino-5-[[4-(3-fluorophenoxy)phenyl]methyl]-7-[5-(1-methyl-1-methylsulfonyl-ethyl)-1,3,4-oxadiazol-2-yl]-1,1-dioxo-2,3-dihydro-1λ6,5-benzothiazepin-4-one] | 82 | 0.645 | 0.539 | 4.75
2 | CCC(CC)Oc1ccc(CN2C(=O)[C@@H](N)CS(=O)(=O)c3ccc(-c4nnc(C(C)(C)S(C)(=O)=O)o4)cc32)cc1 [Example 19, (3R)-3-amino-5-[[4-(1-ethylpropoxy)phenyl]methyl]-7-[5-(1-methyl-1-methylsulfonyl-ethyl)-1,3,4-oxadiazol-2-yl]-1,1-dioxo-2,3-dihydro-1λ6,5-benzothiazepin-4-one] | 78 | 2.75 | 1.52 | 1.81
3 | CC(C)(c1nnc(-c2ccc3c(c2)N(Cc2ccc(OC(F)(F)F)cc2)C(=O)[C@@H](N)CS3(=O)=O)o1)S(C)(=O)=O [Example 64, (3R)-3-amino-7-[5-(1-methyl-1-methylsulfonyl-ethyl)-1,3,4-oxadiazol-2-yl]-1,1-dioxo-5-[[4-(trifluoromethoxy)phenyl]methyl]-2,3-dihydro-126,5-benzothiazepin-4-one] | 98 | 6.17 | 1.92 | 3.26
4 | CC(C)(c1nc(-c2cc3c(cc2F)S(=O)(=O)C[C@H](N)C(=O)N3Cc2ccc(OC(F)(F)F)cc2)no1)S(C)(=O)=O [Example 44, (3R)-3-amino-8-fluoro-7-[5-(1-methyl-1-methylsulfonyl-ethyl)-1,2,4-oxadiazol-3-yl]-1,1-dioxo-5-[[4-(trifluoromethoxy)phenyl]methyl]-2,3-dihydro-1λ6,5-benzothiazepin-4-one] | 251 | 0.208 | 0.317 | 0.683
5 | CN(Cc1ccccc1)c1ccc(CN2C(=O)[C@@H](N)CS(=O)(=O)c3ccc(-c4nnc(C(C)(C)S(C)(=O)=O)o4)cc32)cc1 [Example 15, (3R)-3-amino-5-[[4-[benzyl(methyl)amino]phenyl]methyl]-7-[5-(1-methyl-1-methylsulfonyl-ethyl)-1,3,4-oxadiazol-2-yl]-1,1-dioxo-2,3-dihydro-1λ6,5-benzothiazepin-4-one] | 85 | 2.67 | 8.03 | 0.274
6 | COc1ccc(-c2ccc(CN3C(=O)[C@@H](N)CS(=O)(=O)c4cc(F)c(-c5noc(C(C)(C)S(C)(=O)=O)n5)cc43)cc2)cc1 [Example 50, (3R)-3-amino-8-fluoro-5-[[4-(4-methoxyphenyl)phenyl]methyl]-7-[5-(1-methyl-1-methylsulfonyl-ethyl)-1,2,4-oxadiazol-3-yl]-1,1-dioxo-2,3-dihydro-1λ6,5-benzothiazepin-4-one] | 293 | 0.757 | 0.377 | 2.11
7 | CC(C)(c1nnc(-c2ccc3c(c2)N(Cc2ccc(-c4ccc(C(F)(F)F)cc4)cc2)C(=O)[C@@H](N)CS3(=O)=O)o1)S(C)(=O)=O [Example 56, (3R)-3-amino-7-[5-(1-methyl-1-methylsulfonyl-ethyl)-1,3,4-oxadiazol-2-yl]-1,1-dioxo-5-[[4-[4-(trifluoromethyl)phenyl]phenyl]methyl]-2,3-dihydro-1λ6,5-benzothiazepin-4-one] | 137 | 0.636 | 8.88 | 10.1
8 | CC(C)(c1nc(-c2cc3c(cc2F)S(=O)(=O)C[C@H](N)C(=O)N3Cc2ccc(Oc3ccccc3)cc2)no1)S(C)(=O)=O [Example 30, (3R)-3-amino-8-fluoro-7-[5-(1-methyl-1-methylsulfonyl-ethyl)-1,2,4-oxadiazol-3-yl]-1,1-dioxo-5-[(4-phenoxyphenyl)methyl]-2,3-dihydro-1λ6,5-benzothiazepin-4-one] | 225 | 0.127 | 0.309 | 0.815
9 | CC(C)(c1nnc(-c2ccc3c(c2)N(Cc2ccc(Oc4cccc(C(F)(F)F)c4)cc2)C(=O)[C@@H](N)CS3(=O)=O)o1)S(C)(=O)=O [Example 38] | 130 | 0.623 | 1.28 | 3.23
10 | Cc1cccc(Oc2ccc(CN3C(=O)[C@@H](N)CS(=O)(=O)c4ccc(-c5nnc(C(C)(C)S(C)(=O)=O)o5)cc43)cc2)c1 [Example 31] | 106 | 0.599 | 0.455 | 1.78
11 | CC(C)(c1nnc(-c2cc3c(cc2F)S(=O)(=O)C[C@H](N)C(=O)N3Cc2ccc(Cl)cc2)o1)S(C)(=O)=O [Example 2, (3R)-3-amino-5-[(4-chlorophenyl)methyl]-8-fluoro-7-[5-(1-methyl-1-methylsulfonyl-ethyl)-1,3,4-oxadiazol-2-yl]-1,1-dioxo-2,3-dihydro-1λ6,5-benzothiazepin-4-one] | 123 | 0.399 | 1.38 | 1.09
12 | CC(C)(c1nnc(-c2ccc3c(c2)N(Cc2ccc(Oc4ccccc4)cc2)C(=O)[C@@H](N)CS3(=O)=O)o1)S(=O)(=O)C1CC1 [Example 61, (3R)-3-amino-7-[5-(1-cyclopropylsulfonyl-1-methyl-ethyl)-1,3,4-oxadiazol-2-yl]-1,1-dioxo-5-[(4-phenoxyphenyl)methyl]-2,3-dihydro-1λ6,5-benzothiazepin-4-one] | 58 | 4.56 | 0.768 | 4.77
13 | CC(C)(c1nnc(-c2ccc3c(c2)N(Cc2ccc(-c4ccc(C(F)(F)F)cc4)nc2)C(=O)[C@@H](N)CS3(=O)=O)o1)S(C)(=O)=O [Example 57, (3R)-3-amino-7-[5-(1-methyl-1-methylsulfonyl-ethyl)-1,3,4-oxadiazol-2-yl]-1,1-dioxo-5-[[6-[4-(trifluoromethyl)phenyl]-3-pyridyl]methyl]-2,3-dihydro-1λ6,5-benzothiazepin-4-one] | 65 | 1.11 | 8.95 | 27.2
14 | CC(C)(c1nnc(-c2ccc3c(c2)N(Cc2ccc(-c4ccc(C(F)(F)F)cn4)cc2)C(=O)[C@@H](N)CS3(=O)=O)o1)S(C)(=O)=O [Example 10] | 145 | 1.16 | 1.75 | 1.02
15 | CC(C)(c1nnc(-c2ccc3c(c2)N(Cc2ccc(SC(F)(F)F)cc2)C(=O)[C@@H](N)CS3(=O)=O)o1)S(C)(=O)=O [Example 7] | 76 | 3.59 | 1.71 | 2.3
16 | COCC(C)(C)Oc1ccc(CN2C(=O)[C@@H](N)CS(=O)(=O)c3cc(F)c(-c4noc(C(C)(C)S(C)(=O)=O)n4)cc32)cc1 [Example 62, (3R)-3-amino-8-fluoro-5-[[4-(2-methoxy-1,1-dimethyl-ethoxy)phenyl]methyl]-7-[5-(1-methyl-1-methylsulfonyl-ethyl)-1,2,4-oxadiazol-3-yl]-1,1-dioxo-2,3-dihydro-benzothiazepin-4-one] | 188 | 1.39 | 0.269 | 1.07
17 | COc1cccc(-c2ccc(CN3C(=O)[C@@H](N)CS(=O)(=O)c4ccc(-c5nnc(C(C)(C)S(C)(=O)=O)o5)cc43)cc2)c1 [Example 22, (3R)-3-amino-5-[[4-(3-methoxyphenyl)phenyl]methyl]-7-[5-(1-methyl-1-methylsulfonyl-ethyl)-1,3,4-oxadiazol-2-yl]-1,1-dioxo-2,3-dihydro-1λ6,5-benzothiazepin-4-one] | 47 | > 10 | 1.64 | > 62.5
18 | CC(C)(c1nnc(-c2ccc3c(c2)N(Cc2ccc(OCC(F)(F)F)cc2)C(=O)[C@@H](N)CS3(=O)=O)o1)S(C)(=O)=O [Example 6, (3R)-3-amino-7-[5-(1-methyl-1-methylsulfonyl-ethyl)-1,3,4-oxadiazol-2-yl]-1,1-dioxo-5-[[4-(2,2,2-trifluoroethoxy)phenyl]methyl]-2,3-dihydro-1λ6,5-benzothiazepin-4-one] | 62 | 5.56 | 2.05 | 1.78
19 | CC(C)(c1nnc(-c2ccc3c(c2)N(Cc2ccc(Oc4ccc(F)c(Cl)c4)cc2)C(=O)[C@@H](N)CS3(=O)=O)o1)S(C)(=O)=O [Example 37, (3R)-3-amino-5-[[4-(3-chloro-4-fluoro-phenoxy)phenyl]methyl]-7-[5-(1-methyl-1-methylsulfonyl-ethyl)-1,3,4-oxadiazol-2-yl]-1,1-dioxo-2,3-dihydro-1λ6,5-benzothiazepin-4-one] | 115 | 1.29 | 0.414 | 11.1
